This is an account of results in publication PMC9856672, “SGC-CAMKK2-1: A Chemical Probe for CAMKK2” (Cells, 2023).

Each structure is given as a SMILES string.

One assay addresses T1, LRRK2 (Homo sapiens, UniProt Q5S007).
T1 construct: purchased Eurofins DiscoverX KINOMEscan
In words: KINOMEscan 1 μM, LRRK2. It counts as binding. The settings on record: 1000 nM; Entrez LRRK2; read-out: Percent Control. From the text: (§1) Supplement cells-12-00287-s001.zip/File S2. KinomeScan data for the CAMKK2 probe and negative control.xlsx, sheet "SGC-CAMKK2-1" | column: Percent Control

The next assay addresses T2, MAP4K3 (Homo sapiens, UniProt Q8IVH8).
T2 construct: purchased Eurofins DiscoverX KINOMEscan
Kind of assay: KINOMEscan 1 μM, MAP4K3. The format is binding. The settings on record: 1000 nM; Entrez MAP4K3; read-out: Percent Control.
Source text: as §1

The next assay deals with T3, FLT3 (Homo sapiens, UniProt P36888).
T3 construct: purchased Eurofins DiscoverX KINOMEscan
In words: KINOMEscan 1 μM, FLT3. The format is binding. The settings on record: 1000 nM; Entrez FLT3; read-out: Percent Control.
Source text: as §1

For another assay, the target named is T4, TAK1 (Homo sapiens, UniProt O43318).
T4 construct: purchased Eurofins DiscoverX KINOMEscan
In words: KINOMEscan 1 μM, TAK1. It counts as binding. The settings on record: 1000 nM; Entrez MAP3K7; read-out: Percent Control.
Source text: as §1

In the next assay the target is T5, GSK3A (Homo sapiens, UniProt P49840).
T5 construct: purchased Eurofins DiscoverX KINOMEscan
In words: KINOMEscan 1 μM, GSK3A. The format is binding. The settings on record: 1000 nM; Entrez GSK3A; read-out: Percent Control.
Source text: as §1

Another assay has as its target T6, CDC2L1 (Homo sapiens, UniProt P21127).
T6 construct: purchased Eurofins DiscoverX KINOMEscan
In words: KINOMEscan 1 μM, CDC2L1. The format is binding. Conditions: 1000 nM; Entrez CDK11B; read-out: Percent Control.
Source text: as §1

The target of another assay is T7, CDK4 (Homo sapiens, UniProt P11802).
T7 construct: purchased Eurofins DiscoverX KINOMEscan
Kind of assay: KINOMEscan 1 μM, CDK4. It counts as binding. The settings on record: 1000 nM; Entrez CDK4; read-out: Percent Control.
Source text: as §1

A further assay addresses T8, CDK4-cyclinD1 (Homo sapiens, UniProt P11802).
T8 construct: purchased Eurofins DiscoverX KINOMEscan
In words: KINOMEscan 1 μM, CDK4-cyclinD1. It counts as binding. Conditions: 1000 nM; Entrez CDK4; read-out: Percent Control.
Source text: as §1

Another assay addresses T9, DYRK1A (Homo sapiens, UniProt Q13627).
T9 construct: purchased Eurofins DiscoverX KINOMEscan
Kind of assay: KINOMEscan 1 μM, DYRK1A. It counts as binding. Conditions: 1000 nM; Entrez DYRK1A; read-out: Percent Control.
Source text: as §1

The target in a further assay is T10, MARK2 (Homo sapiens, UniProt Q7KZI7).
T10 construct: purchased Eurofins DiscoverX KINOMEscan
Kind of assay: KINOMEscan 1 μM, MARK2. It counts as binding. The settings on record: 1000 nM; Entrez MARK2; read-out: Percent Control.
Source text: as §1

Another assay deals with T11, NEK7 (Homo sapiens, UniProt Q8TDX7).
T11 construct: purchased Eurofins DiscoverX KINOMEscan
Kind of assay: KINOMEscan 1 μM, NEK7. It counts as binding. The settings on record: 1000 nM; Entrez NEK7; read-out: Percent Control.
Source text: as §1

In the next assay the target is T12, PAK3 (Homo sapiens, UniProt O75914).
T12 construct: purchased Eurofins DiscoverX KINOMEscan
Kind of assay: DiscoverX KINOMEscan binding assay at 1 μM, PAK3. The settings on record: Compound Concentration 1000 nM, read-out: Percent Control.
Source text: as §1

For assay [1], the target named is T13, PDGFRA (Homo sapiens, UniProt P16234).
T13 construct: purchased Eurofins DiscoverX KINOMEscan
In words: DiscoverX KINOMEscan binding assay at 1 μM, PDGFRA. Conditions: Compound Concentration 1000 nM, read-out: Percent Control.
Source text: as §1

The target in another assay is T14, PLK1 (Homo sapiens, UniProt P53350).
T14 construct: purchased Eurofins DiscoverX KINOMEscan
Kind of assay: DiscoverX KINOMEscan binding assay at 1 μM, PLK1. Conditions: Compound Concentration 1000 nM, read-out: Percent Control.
Source text: as §1

The next assay concerns the target T15, QSK (Homo sapiens, UniProt Q9Y2K2).
T15 construct: purchased Eurofins DiscoverX KINOMEscan
In words: DiscoverX KINOMEscan binding assay at 1 μM, QSK. The settings on record: QSK (KIAA0999); Compound Concentration 1000 nM; read-out: Percent Control.
Source text: as §1

Assay [2] addresses T16, RPS6KA4(Kin.Dom.2-C-terminal) (Homo sapiens, UniProt O75676).
T16 construct: RPS6KA4(Kin.Dom.2-C-terminal); purchased Eurofins DiscoverX KINOMEscan
In words: DiscoverX KINOMEscan binding assay at 1 μM, RPS6KA4(Kin.Dom.2-C-terminal). The settings on record: Compound Concentration 1000 nM, read-out: Percent Control.
Source text: as §1

A further assay addresses T17, WEE2 (Homo sapiens, UniProt P0C1S8).
T17 construct: purchased Eurofins DiscoverX KINOMEscan
Kind of assay: DiscoverX KINOMEscan binding assay at 1 μM, WEE2. Conditions: Compound Concentration 1000 nM, read-out: Percent Control.
Source text: as §1

For the next assay, the target named is T18, EIF2AK1 (Homo sapiens, UniProt Q9BQI3).
T18 construct: purchased Eurofins DiscoverX KINOMEscan
Kind of assay: KINOMEscan at 1 μM, EIF2AK1. The format is binding. Conditions: 1000 nM, read-out: Percent Control. An excerpt:
(§2) Supplement cells-12-00287-s001.zip/File S2. KinomeScan data for the CAMKK2 probe and negative control.xlsx, sheet "SGC-CAMKK2-1N" | column: Percent Control

A further assay concerns the target T19, HIPK1 (Homo sapiens, UniProt Q86Z02).
T19 construct: purchased Eurofins DiscoverX KINOMEscan
In words: KINOMEscan at 1 μM, HIPK1. The format is binding. Conditions: 1000 nM, read-out: Percent Control.
Source text: as §2

In another assay the target is T20, TXK (Homo sapiens, UniProt P42681).
T20 construct: purchased Eurofins DiscoverX KINOMEscan
Kind of assay: KINOMEscan at 1 μM, TXK. It counts as binding. Conditions: 1000 nM, read-out: Percent Control.
Source text: as §2

The next assay concerns the target T21, EPHA1 (Homo sapiens, UniProt P21709).
T21 construct: purchased Eurofins DiscoverX KINOMEscan
In words: KINOMEscan at 1 μM, EPHA1. It counts as binding. Conditions: 1000 nM, read-out: Percent Control.
Source text: as §2

For the next assay, the target named is T22, MARK3 (Homo sapiens, UniProt P27448).
T22 construct: purchased Eurofins DiscoverX KINOMEscan
In words: KINOMEscan at 1 μM, MARK3. It counts as binding. Conditions: 1000 nM, read-out: Percent Control.
Source text: as §2

Another assay addresses T23, ALK (Homo sapiens, UniProt Q9UM73).
T23 construct: purchased Eurofins DiscoverX KINOMEscan
In words: KINOMEscan at 1 μM, ALK. The settings on record: 1000 nM, read-out: Percent Control. It counts as binding.
Source text: as §2

The target in a further assay is T24, MEK5 (Homo sapiens, UniProt Q13163).
T24 construct: purchased Eurofins DiscoverX KINOMEscan
In words: KINOMEscan at 1 μM, MEK5. It counts as binding. Conditions: 1000 nM, read-out: Percent Control.
Source text: as §2

The target of assay [3] is T13, PDGFRA. Kind of assay: KINOMEscan at 1 μM, PDGFRA. It counts as binding. The settings on record: 1000 nM, read-out: Percent Control.
Source text: as §2

The target in the next assay is T25, SGK (Homo sapiens, UniProt O00141).
T25 construct: purchased Eurofins DiscoverX KINOMEscan
In words: KINOMEscan at 1 μM, SGK. The format is binding. The settings on record: 1000 nM, read-out: Percent Control.
Source text: as §2

The next assay has as its target T26, PRKG2 (Homo sapiens, UniProt Q13237).
T26 construct: purchased Eurofins DiscoverX KINOMEscan
In words: KINOMEscan at 1 μM, PRKG2. Conditions: 1000 nM, read-out: Percent Control. It counts as binding.
Source text: as §2

Another assay concerns the target T27, MEK4 (Homo sapiens, UniProt P45985).
T27 construct: purchased Eurofins DiscoverX KINOMEscan
Kind of assay: KINOMEscan at 1 μM, MEK4. The settings on record: 1000 nM, read-out: Percent Control. It counts as binding.
Source text: as §2

For assay [4], the target named is T28, TYK2(JH2domain-pseudokinase) (Homo sapiens, UniProt P29597).
T28 construct: TYK2(JH2domain-pseudokinase); purchased Eurofins DiscoverX KINOMEscan
Kind of assay: KINOMEscan at 1 μM, TYK2(JH2domain-pseudokinase). It counts as binding. Conditions: 1000 nM, read-out: Percent Control.
Source text: as §2

For another assay, the target named is T29, BRSK1 (Homo sapiens, UniProt Q8TDC3).
T29 construct: purchased Eurofins DiscoverX KINOMEscan
In words: KINOMEscan at 1 μM, BRSK1. It counts as binding. The settings on record: 1000 nM, read-out: Percent Control.
Source text: as §2

The next assay has as its target T30, AXL (Homo sapiens, UniProt P30530).
T30 construct: purchased Eurofins DiscoverX KINOMEscan
Kind of assay: KINOMEscan at 1 μM, AXL. It counts as binding. The settings on record: 1000 nM, read-out: Percent Control.
Source text: as §2

The target of another assay is T31, BRSK2 (Homo sapiens, UniProt Q8IWQ3).
T31 construct: purchased Eurofins DiscoverX KINOMEscan
In words: KINOMEscan at 1 μM, BRSK2. The format is binding. Conditions: 1000 nM, read-out: Percent Control.
Source text: as §2

Another assay concerns the target T32, CDKL5 (Homo sapiens, UniProt O76039).
T32 construct: purchased Eurofins DiscoverX KINOMEscan
In words: KINOMEscan at 1 μM, CDKL5. It counts as binding. The settings on record: 1000 nM, read-out: Percent Control.
Source text: as §2

Assay [5] has as its target T33, EGFR(L747-E749del, A750P) (Homo sapiens, UniProt P00533, A750P/DEL747-749).
T33 construct: purchased Eurofins DiscoverX KINOMEscan
In words: KINOMEscan binding assay at 1 μM, EGFR(L747-E749del, A750P). The settings on record: Compound Concentration 1000 nM; read-out: Percent Control.
Source text: as §2

T13 sequence (P16234 24-1089): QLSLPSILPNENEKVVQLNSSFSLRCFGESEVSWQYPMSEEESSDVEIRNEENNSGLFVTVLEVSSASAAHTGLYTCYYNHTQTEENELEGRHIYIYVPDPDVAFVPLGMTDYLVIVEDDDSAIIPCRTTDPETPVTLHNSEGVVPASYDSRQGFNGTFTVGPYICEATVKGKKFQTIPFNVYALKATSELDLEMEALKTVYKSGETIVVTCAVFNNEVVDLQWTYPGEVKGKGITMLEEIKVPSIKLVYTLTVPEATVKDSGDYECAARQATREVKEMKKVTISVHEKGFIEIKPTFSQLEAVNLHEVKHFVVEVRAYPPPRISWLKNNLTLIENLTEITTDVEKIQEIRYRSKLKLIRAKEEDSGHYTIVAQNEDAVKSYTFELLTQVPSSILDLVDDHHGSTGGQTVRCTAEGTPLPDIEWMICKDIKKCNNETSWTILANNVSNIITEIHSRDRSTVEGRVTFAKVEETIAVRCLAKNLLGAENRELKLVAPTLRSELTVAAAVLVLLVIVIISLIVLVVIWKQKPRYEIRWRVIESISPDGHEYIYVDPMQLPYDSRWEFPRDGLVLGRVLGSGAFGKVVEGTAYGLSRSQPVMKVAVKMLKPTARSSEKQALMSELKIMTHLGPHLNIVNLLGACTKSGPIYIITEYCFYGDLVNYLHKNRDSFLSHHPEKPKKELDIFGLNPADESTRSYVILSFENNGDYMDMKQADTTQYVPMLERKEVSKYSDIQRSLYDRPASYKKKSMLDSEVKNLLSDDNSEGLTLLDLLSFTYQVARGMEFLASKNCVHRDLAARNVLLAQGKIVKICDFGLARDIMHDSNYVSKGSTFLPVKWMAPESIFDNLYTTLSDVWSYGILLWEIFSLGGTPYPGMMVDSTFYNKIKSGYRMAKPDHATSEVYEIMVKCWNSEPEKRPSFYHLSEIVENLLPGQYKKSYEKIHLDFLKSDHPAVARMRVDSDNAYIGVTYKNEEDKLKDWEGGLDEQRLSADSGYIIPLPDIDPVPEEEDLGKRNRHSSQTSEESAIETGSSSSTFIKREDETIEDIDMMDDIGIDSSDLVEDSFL
T2 sequence (Q8IVH8 whole entry): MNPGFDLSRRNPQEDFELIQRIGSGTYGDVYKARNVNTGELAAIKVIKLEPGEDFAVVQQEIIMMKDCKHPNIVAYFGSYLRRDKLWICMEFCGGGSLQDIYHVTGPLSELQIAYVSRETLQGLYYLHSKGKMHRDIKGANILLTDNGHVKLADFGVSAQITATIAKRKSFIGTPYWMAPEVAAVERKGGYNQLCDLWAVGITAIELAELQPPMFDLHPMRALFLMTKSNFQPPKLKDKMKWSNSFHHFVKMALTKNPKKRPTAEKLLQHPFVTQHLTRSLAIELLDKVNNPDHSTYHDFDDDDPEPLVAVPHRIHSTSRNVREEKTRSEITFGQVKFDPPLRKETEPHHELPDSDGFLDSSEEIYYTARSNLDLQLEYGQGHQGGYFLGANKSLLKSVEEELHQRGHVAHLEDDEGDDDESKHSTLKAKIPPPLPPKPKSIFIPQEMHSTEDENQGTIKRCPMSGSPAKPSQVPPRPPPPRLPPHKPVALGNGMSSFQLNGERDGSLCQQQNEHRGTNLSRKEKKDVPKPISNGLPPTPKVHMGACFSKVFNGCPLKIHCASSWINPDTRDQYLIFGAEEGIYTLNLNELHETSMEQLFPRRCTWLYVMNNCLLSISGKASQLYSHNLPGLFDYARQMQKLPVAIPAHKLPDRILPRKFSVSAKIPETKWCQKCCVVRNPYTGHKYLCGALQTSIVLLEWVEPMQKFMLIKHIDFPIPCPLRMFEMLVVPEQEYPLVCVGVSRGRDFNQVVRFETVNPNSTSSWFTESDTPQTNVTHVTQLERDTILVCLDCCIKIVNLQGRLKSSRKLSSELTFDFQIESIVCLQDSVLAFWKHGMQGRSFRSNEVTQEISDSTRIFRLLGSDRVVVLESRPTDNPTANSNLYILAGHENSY
T27 sequence (P45985 whole entry): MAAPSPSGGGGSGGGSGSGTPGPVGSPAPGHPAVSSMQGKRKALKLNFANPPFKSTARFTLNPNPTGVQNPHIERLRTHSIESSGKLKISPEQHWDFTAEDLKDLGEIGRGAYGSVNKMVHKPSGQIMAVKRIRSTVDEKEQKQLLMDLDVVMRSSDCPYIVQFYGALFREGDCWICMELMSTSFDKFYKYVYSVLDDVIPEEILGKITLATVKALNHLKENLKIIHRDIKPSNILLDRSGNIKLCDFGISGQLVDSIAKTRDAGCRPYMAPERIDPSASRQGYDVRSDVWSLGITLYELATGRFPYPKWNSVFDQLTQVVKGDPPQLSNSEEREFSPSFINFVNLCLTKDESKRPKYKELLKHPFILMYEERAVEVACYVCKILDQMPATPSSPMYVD
T17 sequence (P0C1S8 whole entry): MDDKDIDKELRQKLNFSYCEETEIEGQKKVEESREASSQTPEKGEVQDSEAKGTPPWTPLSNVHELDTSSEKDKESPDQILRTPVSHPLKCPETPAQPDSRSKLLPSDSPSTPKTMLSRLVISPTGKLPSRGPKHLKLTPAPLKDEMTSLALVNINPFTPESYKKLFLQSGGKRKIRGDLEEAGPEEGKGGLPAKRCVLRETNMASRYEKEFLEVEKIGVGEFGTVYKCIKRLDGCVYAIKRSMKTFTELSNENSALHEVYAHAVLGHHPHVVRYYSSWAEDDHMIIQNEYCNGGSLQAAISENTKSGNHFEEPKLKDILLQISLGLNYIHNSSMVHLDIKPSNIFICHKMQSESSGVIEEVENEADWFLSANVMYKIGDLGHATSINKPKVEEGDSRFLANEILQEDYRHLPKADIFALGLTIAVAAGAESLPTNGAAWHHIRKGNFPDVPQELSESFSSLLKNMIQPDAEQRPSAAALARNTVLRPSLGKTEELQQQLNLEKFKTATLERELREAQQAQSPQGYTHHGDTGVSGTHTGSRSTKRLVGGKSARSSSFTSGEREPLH
T24 sequence (Q13163 whole entry): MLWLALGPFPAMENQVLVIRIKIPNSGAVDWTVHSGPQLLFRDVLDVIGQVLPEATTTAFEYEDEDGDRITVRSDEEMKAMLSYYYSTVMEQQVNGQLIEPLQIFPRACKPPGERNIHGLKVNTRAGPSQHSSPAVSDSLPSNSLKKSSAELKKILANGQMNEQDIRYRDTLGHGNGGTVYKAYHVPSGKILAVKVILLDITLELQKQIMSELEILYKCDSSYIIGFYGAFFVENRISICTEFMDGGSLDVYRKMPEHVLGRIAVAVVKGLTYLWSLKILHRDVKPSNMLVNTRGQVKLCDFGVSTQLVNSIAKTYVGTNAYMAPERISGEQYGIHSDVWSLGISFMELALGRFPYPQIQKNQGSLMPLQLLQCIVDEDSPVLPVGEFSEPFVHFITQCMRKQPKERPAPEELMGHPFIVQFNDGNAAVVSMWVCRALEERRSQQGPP
T19 sequence (Q86Z02 whole entry): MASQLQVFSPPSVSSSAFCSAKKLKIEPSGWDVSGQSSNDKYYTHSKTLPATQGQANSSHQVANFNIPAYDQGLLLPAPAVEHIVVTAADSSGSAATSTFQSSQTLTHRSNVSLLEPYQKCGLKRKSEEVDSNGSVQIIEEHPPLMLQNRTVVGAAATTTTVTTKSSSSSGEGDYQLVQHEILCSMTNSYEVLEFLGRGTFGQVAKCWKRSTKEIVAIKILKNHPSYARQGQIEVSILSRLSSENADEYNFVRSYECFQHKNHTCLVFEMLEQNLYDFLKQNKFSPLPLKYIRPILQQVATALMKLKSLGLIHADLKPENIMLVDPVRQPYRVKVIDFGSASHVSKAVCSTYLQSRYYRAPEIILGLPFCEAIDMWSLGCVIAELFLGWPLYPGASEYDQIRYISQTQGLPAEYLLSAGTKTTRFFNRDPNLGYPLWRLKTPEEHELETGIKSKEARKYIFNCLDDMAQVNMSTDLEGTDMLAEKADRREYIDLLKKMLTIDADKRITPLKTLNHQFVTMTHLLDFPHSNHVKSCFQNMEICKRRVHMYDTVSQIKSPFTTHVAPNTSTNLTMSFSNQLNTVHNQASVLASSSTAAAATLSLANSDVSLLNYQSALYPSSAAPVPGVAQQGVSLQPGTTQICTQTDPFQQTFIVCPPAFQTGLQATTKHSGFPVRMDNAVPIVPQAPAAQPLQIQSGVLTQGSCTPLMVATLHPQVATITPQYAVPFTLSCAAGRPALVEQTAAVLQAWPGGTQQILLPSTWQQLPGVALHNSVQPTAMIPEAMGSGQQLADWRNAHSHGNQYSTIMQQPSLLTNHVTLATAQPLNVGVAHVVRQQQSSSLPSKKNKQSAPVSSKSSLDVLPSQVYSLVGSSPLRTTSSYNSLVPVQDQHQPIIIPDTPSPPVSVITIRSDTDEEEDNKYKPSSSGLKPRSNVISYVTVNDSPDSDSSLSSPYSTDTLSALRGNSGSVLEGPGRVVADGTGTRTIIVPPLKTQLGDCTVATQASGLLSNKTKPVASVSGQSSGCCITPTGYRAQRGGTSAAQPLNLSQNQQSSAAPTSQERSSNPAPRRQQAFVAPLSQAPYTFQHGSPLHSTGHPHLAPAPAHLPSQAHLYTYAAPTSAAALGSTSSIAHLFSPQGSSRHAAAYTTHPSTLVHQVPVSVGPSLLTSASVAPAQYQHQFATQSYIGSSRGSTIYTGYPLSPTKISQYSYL
T11 sequence (Q8TDX7 whole entry): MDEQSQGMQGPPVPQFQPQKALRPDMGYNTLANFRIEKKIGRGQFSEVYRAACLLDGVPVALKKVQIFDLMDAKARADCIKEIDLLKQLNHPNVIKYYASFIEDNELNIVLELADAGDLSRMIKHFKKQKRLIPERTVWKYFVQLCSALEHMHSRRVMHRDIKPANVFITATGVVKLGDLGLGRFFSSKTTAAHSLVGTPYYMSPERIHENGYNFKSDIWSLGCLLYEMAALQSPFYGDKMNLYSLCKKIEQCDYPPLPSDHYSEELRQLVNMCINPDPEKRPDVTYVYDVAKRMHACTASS

Take `Cc1cccc(-c2cnc3occ(-c4ccc(C(=O)O)c(C5CCCC5)c4)c3c2)c1` [SGC-CAMKK2-1 (YL-36)]: the remaining binding at 1 µM was 70% at LRRK2; 78% at MAP4K3; 80% at FLT3; 91% on TAK1; 92% on GSK3A; 93% at CDC2L1. Further, the remaining binding at 1 µM at CDK4, on CDK4-cyclinD1, at DYRK1A, on MARK2, at NEK7 and on PAK3 was 100% throughout. In addition, the remaining binding at 1 µM (on PDGFRA [1]; on PLK1; at QSK; in assay [2]; on WEE2) was 100% throughout.

For the molecule `O=C(O)c1ccc(-c2coc3ncc(-c4ccccc4)cc23)cc1Cl` [SGC-CAMKK2-1N (UNC-YL-83)], the remaining binding at 1 µM at EIF2AK1 is 42%; at HIPK1 it was 44%; on TXK, 53%; at EPHA1, 61%; on MARK3 it was 61%; on ALK, 66%. For the same molecule, the remaining binding at 1 µM on MEK5 is 67%; on PDGFRA [3], 74%; at SGK, 79%; on PRKG2 it was 80%; at MEK4, 81%; in [4] it was 83%. The remaining binding at 1 µM at BRSK1 was determined as 92%; at AXL, 94%; on BRSK2, 100%; on CDKL5, 100%; in assay [5], 100%.
